# Assay results: patent US12472272B2, “Radiolabelled compounds for diagnosis or treatment of prostate-specific membrane antigen- expressing cancer” (PROVINCIAL HEALTH SERVICES AUTHORITY, priority 2019, dated 2025)
# “Also recorded” adds a separate entry of the source.
# System: PSMA-expressing cancer xenografts (LNCaP)
# Assay: Biodistribution of ^177Lu-labeled HTK03041
# Type: in vivo, mice
# Details: for Tissue (% ID/g): Muscle / Tissue (% ID/g): Pancreas / Tissue (% ID/g): Salivary / Tissue (% ID/g): Seminal / Tissue (% ID/g): Spleen / Tissue (% ID/g): Stomach / Tissue (% ID/g): Tail / Tissue (% ID/g): Testes / Tissue (% ID/g): Thyroid / Tissue (% ID/g): Tumor / Tissue (% ID/g): Urine / tumor-to-background contrast ratio Tumor: Blood / tumor-to-background contrast ratio Tumor: Muscle / tumor-to-background contrast ratio Tumor: kidney / Tissue (% ID/g): Adrenal glands / Tissue (% ID/g): Blood / Tissue (% ID/g): Bone / Tissue (% ID/g): Brain / Tissue (% ID/g): Fat / Tissue (% ID/g): Heart / Tissue (% ID/g): Intestine / Tissue (% ID/g): Kidneys / Tissue (% ID/g): Lacrimal / Tissue (% ID/g): Liver / Tissue (% ID/g): Lungs: ^177Lu
# Method: Imaging and biodistribution experiments were performed using NODSCID 1L2RγKO male mice. Mice were anesthetized by inhalation with 2% isoflurane in oxygen, and implanted subcutaneously with 1×10^7 LNCaP cells behind left shoulder. Mice were imaged or used in biodistribution studies when the tumor grew up to reach 5-8 mm in diameter during 5-6 weeks.
# SPECT/CT imaging experiments were conducted using the MlLabs (Utrecht, the Netherlands) U-SPECT-II/CT scanner. Each tumor bearing mouse was injected with ˜37 MBq of ^177Lu-labeled HTK03041 through the tail vein under anesthesia (2% isoflurane in oxygen). The mice were allowed to recover and roam freely in their cage and imaged at 1, 4, 24, 72 and 120 hours after injection. At each time point, the mice were sedated again and positioned in the scanner. A 5-min CT scan was conducted first for anatomical reference with a voltage setting at 60 kV and current at 615 μA followed by a 60-min static emission scan acquired in list mode using an ultra-high resolution multi-pinhole rat-mouse (1 mm pinhole size) collimator. Data were reconstructed using the U-SPECT II software with a 20% window width on three energy windows. The photopeak window was centered at 208 keV, with lower scatter and upper scatter windows centered at 170 and 255 keV, respectively. Reconstruction parameters used maximum-likelihood expectation maximization (3 iterations), pixel-based ordered subset expectation maximization (16 subsets), and a post-processing filter (Gaussian blurring) of 0.5 mm. Images were decay corrected to injection time in PMOD (PMOD Technologies, Switzerland) then converted to DICOM for qualitative visualization in Inveon Research Workplace (Siemens Medical Solutions USA, Inc.).
# For biodistribution studies, the mice were injected with the radiotracer as described above. At predetermined time points (1 or 3 h for ^68Ga studies; 1, 4, 24, 72, or 120 h for ^177Lu studies), the mice was anesthetized with 2% isoflurane inhalation, and euthanized by CO2 inhalation. Blood was withdrawn immediately from the heart, and the organs/tissues of interest were collected. The collected organs/tissues were weighed and counted using a Perkin Elmer (Waltham, MA) Wizard2 2480 gamma counter. The uptake in each organ/tissue was normalized to the injected dose using a standard curve, and expressed as the percentage of the injected dose per gram of tissue (% ID/g).
structure (smiles),measurement,setting,value
O=C([O-])CN1CCN(CC(=O)[O-])CCN(CC(=O)NC[C@H]2CC[C@H](C(=O)N[C@@H](Cc3c4ccccc4cc4ccccc34)C(=O)NCCCC[C@H](NC(=O)N[C@@H](CCC(=O)O)C(=O)O)C(=O)O)CC2)CCN(CC(=O)[O-])CC1.[177Lu+3] [^177Lu-HTK03041],Tissue (% ID/g): Muscle,24 h post-injection,0.15 ± 0.03 % ID/g
same,Tissue (% ID/g): Pancreas,24 h post-injection,0.26 ± 0.04 % ID/g
same,Tissue (% ID/g): Salivary,24 h post-injection,0.40 ± 0.06 % ID/g
same,Tissue (% ID/g): Seminal,24 h post-injection,0.23 ± 0.13 % ID/g
same,Tissue (% ID/g): Spleen,24 h post-injection,0.59 ± 0.19 % ID/g
same,Tissue (% ID/g): Stomach,24 h post-injection,0.18 ± 0.04 % ID/g
same,Tissue (% ID/g): Tail,24 h post-injection,0.34 ± 0.17 % ID/g
same,Tissue (% ID/g): Testes,24 h post-injection,0.40 ± 0.08 % ID/g
same,Tissue (% ID/g): Thyroid,24 h post-injection,0.47 ± 0.09 % ID/g
same,Tissue (% ID/g): Tumor,24 h post-injection,19.8 ± 6.13 % ID/g
same,Tissue (% ID/g): Urine,24 h post-injection,23.8 ± 8.50 % ID/g
same,tumor-to-background contrast ratio Tumor: Blood,24 h post-injection,282 ± 82.6
same,tumor-to-background contrast ratio Tumor: Muscle,24 h post-injection,142 ± 30.1
same,tumor-to-background contrast ratio Tumor: kidney,24 h post-injection,0.97 ± 0.15
same,Tissue (% ID/g): Adrenal glands,72 h post-injection,0.12 ± 0.05 % ID/g
same,Tissue (% ID/g): Blood,72 h post-injection,0.02 ± 0.00 % ID/g
same,Tissue (% ID/g): Bone,72 h post-injection,0.02 ± 0.01 % ID/g
same,Tissue (% ID/g): Brain,72 h post-injection,0.01 ± 0.00 % ID/g
same,Tissue (% ID/g): Fat,72 h post-injection,0.03 ± 0.01 % ID/g
same,Tissue (% ID/g): Heart,72 h post-injection,0.07 ± 0.02 % ID/g
same,Tissue (% ID/g): Intestine,72 h post-injection,0.13 ± 0.04 % ID/g
same,Tissue (% ID/g): Kidneys,72 h post-injection,1.27 ± 0.58 % ID/g
same,Tissue (% ID/g): Lacrimal,72 h post-injection,0.01 ± 0.01 % ID/g
same,Tissue (% ID/g): Liver,72 h post-injection,0.13 ± 0.05 % ID/g
same,Tissue (% ID/g): Lungs,72 h post-injection,0.14 ± 0.04 % ID/g
same,Tissue (% ID/g): Muscle,72 h post-injection,0.02 ± 0.01 % ID/g
same,Tissue (% ID/g): Pancreas,72 h post-injection,0.05 ± 0.02 % ID/g
same,Tissue (% ID/g): Salivary,72 h post-injection,0.08 ± 0.03 % ID/g
same,Tissue (% ID/g): Seminal,72 h post-injection,0.03 ± 0.01 % ID/g
same,Tissue (% ID/g): Spleen,72 h post-injection,0.12 ± 0.04 % ID/g
same,Tissue (% ID/g): Stomach,72 h post-injection,0.19 ± 0.09 % ID/g
same,Tissue (% ID/g): Tail,72 h post-injection,0.13 ± 0.08 % ID/g
same,Tissue (% ID/g): Testes,72 h post-injection,0.08 ± 0.02 % ID/g
same,Tissue (% ID/g): Thyroid,72 h post-injection,0.09 ± 0.02 % ID/g
same,Tissue (% ID/g): Tumor,72 h post-injection,15.2 ± 4.72 % ID/g
same,Tissue (% ID/g): Urine,72 h post-injection,0.67 ± 0.22 % ID/g
same,tumor-to-background contrast ratio Tumor: Blood,72 h post-injection,805 ± 164
same,tumor-to-background contrast ratio Tumor: Muscle,72 h post-injection,647 ± 119
same,tumor-to-background contrast ratio Tumor: kidney,72 h post-injection,13.1 ± 3.75
same,Tissue (% ID/g): Adrenal glands,120 h post-injection,0.11 ± 0.11 % ID/g
same,Tissue (% ID/g): Blood,120 h post-injection,0.01 ± 0.01 % ID/g
same,Tissue (% ID/g): Bone,120 h post-injection,0.02 ± 0.00 % ID/g
same,Tissue (% ID/g): Brain,120 h post-injection,0.01 ± 0.00 % ID/g
same,Tissue (% ID/g): Fat,120 h post-injection,0.05 ± 0.09 % ID/g
same,Tissue (% ID/g): Heart,120 h post-injection,0.06 ± 0.02 % ID/g
same,Tissue (% ID/g): Intestine,120 h post-injection,0.06 ± 0.03 % ID/g
same,Tissue (% ID/g): Kidneys,120 h post-injection,1.06 ± 0.74 % ID/g
same,Tissue (% ID/g): Lacrimal,120 h post-injection,0.01 ± 0.01 % ID/g
same,Tissue (% ID/g): Liver,120 h post-injection,0.13 ± 0.04 % ID/g
same,Tissue (% ID/g): Lungs,120 h post-injection,0.10 ± 0.04 % ID/g
same,Tissue (% ID/g): Muscle,120 h post-injection,0.02 ± 0.02 % ID/g
same,Tissue (% ID/g): Pancreas,120 h post-injection,0.04 ± 0.01 % ID/g
same,Tissue (% ID/g): Salivary,120 h post-injection,0.06 ± 0.04 % ID/g
same,Tissue (% ID/g): Seminal,120 h post-injection,0.02 ± 0.01 % ID/g
same,Tissue (% ID/g): Spleen,120 h post-injection,0.22 ± 0.11 % ID/g
same,Tissue (% ID/g): Stomach,120 h post-injection,0.05 ± 0.04 % ID/g
same,Tissue (% ID/g): Tail,120 h post-injection,0.11 ± 0.07 % ID/g
same,Tissue (% ID/g): Testes,120 h post-injection,0.06 ± 0.01 % ID/g
same,Tissue (% ID/g): Thyroid,120 h post-injection,0.08 ± 0.03 % ID/g
same,Tissue (% ID/g): Tumor,120 h post-injection,22.3 ± 6.90 % ID/g
same,Tissue (% ID/g): Urine,120 h post-injection,0.29 ± 0.04 % ID/g
same,tumor-to-background contrast ratio Tumor: Blood,120 h post-injection,1670 ± 272
same,tumor-to-background contrast ratio Tumor: Muscle,120 h post-injection,1215 ± 512
same,tumor-to-background contrast ratio Tumor: kidney,120 h post-injection,25.4 ± 9.59
same,tumor uptake over the investigated time points,up to 120 h post-injection,remained at the similar level throughout the investigated time points; also recorded: sustained over the course of the study
